Reference: ChEMBL document CHEMBL6127092, “Comprehensive structural investigation of a potent and selective CXCR4 antagonist via crosslink modification” (Eur J Med Chem, 2024)
One block for each molecule: values may come before it. Active and inactive are the calls of the source. No cut-off for these calls is given here. Where a SMILES comes first, the peptide text is derived from it. Bridges are numbered along the chain shown (N, C = ends). Triazole bridges read from a SMILES are 1,4-linked. [ ]: non-standard residue; d: D form. 2Nal = N[C@@H](Cc1ccc2ccccc2c1)C(=O)O; Dap(N3) = [N-]=[N+]=NC[C@H](N)C(=O)O; Pra = C#CC[C@H](N)C(=O)O

What was measured:
[1] = target: T1, C-X-C chemokine receptor type 4 (Homo sapiens, UniProt P61073); assay: Binding affinity to CXCR4 (unknown origin) overexpressed in human CCRF-CEM cells assessed as inhibition of ant-CXCR4 PE-antibody binding to receptor preincubated with compound for 45 mins followed by anti-CXCR4 PE-antibody addition and measured after 30 mins by flow cytometry based competitive binding assay; assay type: cell-based
[2] = Stability of compound in PBS at pH 7.4 assessed as parent compound remaining at 10 uM measured after 2 hrs in presence of GSH by RP-HPLC analysis; assay type: physicochemical; settings: PBS with GSH, read-out: Stability
[3] = Stability of compound in PBS at pH 7.4 assessed as parent compound remaining at 10 uM measured after 4 hrs in presence of GSH by RP-HPLC analysis; assay type: physicochemical; settings: PBS with GSH, read-out: Stability
[4] = target: T1, C-X-C chemokine receptor type 4; assay: Displacement of [125I]-CXCL12 from CXCR4 (unknown origin) overexpressed in human CCRF-CEM cells incubated for 1 hrs by gamma-counter; assay type: cell-based
[5] = Stability of compound in PBS at pH 7.4 assessed as parent compound remaining at 10 uM measured immediately in presence of GSH by RP-HPLC analysis; assay type: physicochemical; settings: PBS with GSH, read-out: Stability
[6] = Stability of compound in PBS at pH 7.4 assessed as parent compound remaining at 10 uM measured after 1 hrs in presence of GSH by RP-HPLC analysis; assay type: physicochemical; settings: PBS with GSH, read-out: Stability
[7] = Stability of compound in PBS at pH 7.4 assessed as parent compound remaining at 10 uM measured after 8 hrs in presence of GSH by RP-HPLC analysis; assay type: physicochemical; settings: PBS with GSH, read-out: Stability
[8] = target: T1, C-X-C chemokine receptor type 4; assay: Agonist activity at CXCR4 (unknown origin); assay type: functional
[9] = target: Atypical chemokine receptor 3 (Homo sapiens) (UniProt P25106); assay: Binding affinity to CXCR7 (unknown origin) overexpressed in human MCF7 cells upto 10 uM preincubated for 45 mins followed by anti-CXCR7-APC antibody addition and measured after 30 mins by flow cytometric analysis; assay type: cell-based; settings: time 75.0 min
[10] = target: T1, C-X-C chemokine receptor type 4; assay: Antagonist activity at GFP-tagged CXCR4 (unknown origin) transfected in CHO cells assessed as inhibition of CXCL12-induced cytoplasmic translocation at 0.1 to 1 uM incubated with compound for 45 mins with subsequent CXCL12 addition and measured at 30 to 90 mins by DAPI staining based fluorescence microscopic analysis; assay type: cell-based; settings: filed as antagonist, dose 0.1-1 µM, time 30-90 min
[11] = target: T1, C-X-C chemokine receptor type 4; assay: Antagonist activity at CXCR4 (unknown origin) transfected in human CCRF-CEM cells assessed as inhibition of CXCL12-induced internalization at 0.1 to 1 uM preincubated for 45 mins followed by CXCL12 addition and measured after 30 mins by flow cytometric analysis; assay type: cell-based; settings: filed as antagonist, dose 0.1-1 µM, time 75.0 min
[12] = target: T1, C-X-C chemokine receptor type 4; assay: Agonist activity at GFP-tagged CXCR4 (unknown origin) transfected in CHO cells assessed as induction of internalization at 0.1 to 1 uM incubated with compound for 45 mins and measured at 30 to 90 mins by DAPI staining based fluorescence microscopic analysis; assay type: functional, cell-based; settings: dose 0.1-1 µM, time 30-90 min
CCRF-CEM [13] = assay: Inhibition of CXCL12-mediated cell migration in human CCRF-CEM cells expressing CXCR4 at 0.01 to 10 uM incubated for 6 hrs by DAPI staining based fluorescence microscopic analysis; assay type: functional; settings: dose 0.01-10 µM
[14] = target: T1, C-X-C chemokine receptor type 4; assay: Agonist activity at CXCR4 (unknown origin) transfected in human CCRF-CEM cells assessed as induction of internalization at 0.1 uM incubated for 45 mins by flow cytometric analysis; assay type: functional, cell-based
CCRF-CEM [15] = assay: Inhibition of CXCL12-mediated cell migration in human CCRF-CEM cells expressing CXCR4 incubated for 6 hrs by DAPI staining based fluorescence microscopic analysis; assay type: functional; settings: dose 0.01-10 µM
CCRF-CEM [16] = assay: Inhibition of CXCL12-mediated cell migration in human CCRF-CEM cells expressing CXCR4 at 0.01 uM incubated for 6 hrs by DAPI staining based fluorescence microscopic analysis; assay type: functional

T1 sequence (P61073 whole entry): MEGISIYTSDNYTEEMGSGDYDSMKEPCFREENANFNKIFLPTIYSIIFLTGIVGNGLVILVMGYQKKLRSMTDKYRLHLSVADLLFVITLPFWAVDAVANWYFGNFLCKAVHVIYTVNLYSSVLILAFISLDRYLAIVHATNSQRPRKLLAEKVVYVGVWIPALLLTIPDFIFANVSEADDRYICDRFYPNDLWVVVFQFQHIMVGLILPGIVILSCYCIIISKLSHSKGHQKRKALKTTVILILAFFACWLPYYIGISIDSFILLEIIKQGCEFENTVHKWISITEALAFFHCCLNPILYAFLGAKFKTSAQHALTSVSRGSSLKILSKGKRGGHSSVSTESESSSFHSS
Chain of Atypical chemokine receptor 3 (Homo sapiens) (P25106 whole entry): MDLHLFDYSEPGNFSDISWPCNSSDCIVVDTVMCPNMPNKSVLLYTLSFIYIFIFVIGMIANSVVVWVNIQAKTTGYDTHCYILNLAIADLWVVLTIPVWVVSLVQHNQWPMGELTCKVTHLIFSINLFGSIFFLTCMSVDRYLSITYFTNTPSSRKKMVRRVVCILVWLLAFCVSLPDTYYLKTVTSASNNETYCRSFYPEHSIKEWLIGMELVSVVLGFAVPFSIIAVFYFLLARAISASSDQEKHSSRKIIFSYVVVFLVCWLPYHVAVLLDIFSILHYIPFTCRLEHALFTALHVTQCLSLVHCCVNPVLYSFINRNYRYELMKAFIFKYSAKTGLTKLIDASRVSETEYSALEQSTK

Compound: CC(=O)N[C@@H](CCCNC(=N)N)C(=O)N[C@@H](C)C(=O)N[C@H]1CCC(=O)NCCCC[C@@H](C(=O)O)NC(=O)[C@H](Cc2c[nH]cn2)NC(=O)[C@H](Cc2ccc3ccccc3c2)NC(=O)[C@H](CCCNC(=N)N)NC1=O
IC50 [1]: > 10 nM

Compound: CC(=O)N[C@@H](CCCNC(=N)N)C(=O)N[C@@H](C)C(=O)N[C@@H]1CCC(=O)NCC[C@@H](C(=O)O)NC(=O)[C@H](Cc2c[nH]cn2)NC(=O)[C@H](Cc2ccc3ccccc3c2)NC(=O)[C@H](CCCNC(=N)N)NC1=O
IC50 [1]: 238 nM

Compound: CC(=O)N[C@@H](CCCNC(=N)N)C(=O)N[C@@H](C)C(=O)N[C@@H]1CSSC(C)(C)[C@@H](C(=O)O)NC(=O)[C@H](Cc2cnc[nH]2)NC(=O)[C@H](Cc2ccc3ccccc3c2)NC(=O)[C@H](CCCNC(=N)N)NC1=O
remaining at 2 h, 10 µM [2]: 79%
IC50 [1]: 1.5 nM
remaining at 4 h, 10 µM [3]: 65%
IC50 [4]: 15.2 nM
remaining at 0 h, 10 µM [5]: 100%
remaining at 1 h, 10 µM [6]: 88%
remaining at 8 h, 10 µM [7]: 52%

Compound: CC(=O)N[C@@H](CCCNC(=N)N)C(=O)N[C@@H](C)C(=O)N[C@H]1Cn2cc(nn2)C[C@@H](C(=O)O)NC(=O)[C@H](Cc2c[nH]cn2)NC(=O)[C@H](Cc2ccc3ccccc3c2)NC(=O)[C@H](CCCNC(=N)N)NC1=O (Ac-RA[Dap(N3)]R[2Nal]H[Pra]-OH; triazole 3-7)
IC50 [4]: 36 nM

Compound: CC(=O)N[C@@H](CCCNC(=N)N)C(=O)N[C@@H](C)C(=O)N[C@H]1CCC(=O)NCC[C@@H](C(=O)O)NC(=O)[C@H](Cc2c[nH]cn2)NC(=O)[C@H](Cc2ccc3ccccc3c2)NC(=O)[C@H](CCCNC(=N)N)NC1=O
IC50 [1]: > 10 nM

Compound: CC(=O)N[C@@H](CCCNC(=N)N)C(=O)N[C@@H](C)C(=O)N[C@H]1CC(=O)NCCCC[C@@H](C(=O)O)NC(=O)[C@H](Cc2c[nH]cn2)NC(=O)[C@H](Cc2ccc3ccccc3c2)NC(=O)[C@H](CCCNC(=N)N)NC1=O
IC50 [1]: > 10 nM

Compound: CC(=O)N[C@@H](CCCNC(=N)N)C(=O)N[C@@H](C)C(=O)N[C@H]1Cc2cnnn2CC[C@@H](C(=O)O)NC(=O)[C@H](Cc2c[nH]cn2)NC(=O)[C@H](Cc2ccc3ccccc3c2)NC(=O)[C@H](CCCNC(=N)N)NC1=O
IC50 [8]: 31 nM

Compound: CC(=O)N[C@@H](CCCNC(=N)N)C(=O)N[C@@H](C)C(=O)N[C@H]1CCC(=O)NCCC[C@@H](C(=O)O)NC(=O)[C@H](Cc2c[nH]cn2)NC(=O)[C@H](Cc2ccc3ccccc3c2)NC(=O)[C@H](CCCNC(=N)N)NC1=O
IC50 [1]: > 10 nM

Compound: CC(=O)N[C@@H](CCCNC(=N)N)C(=O)N[C@@H](C)C(=O)N[C@@H]1CCC(=O)NCCCC[C@@H](C(=O)O)NC(=O)[C@H](Cc2c[nH]cn2)NC(=O)[C@H](Cc2ccc3ccccc3c2)NC(=O)[C@H](CCCNC(=N)N)NC1=O
IC50 [1]: > 10 nM

Compound: CC(=O)N[C@@H](CCCNC(=N)N)C(=O)N[C@@H](C)C(=O)N[C@@H]1CCC(=O)NCCC[C@@H](C(=O)O)NC(=O)[C@H](Cc2c[nH]cn2)NC(=O)[C@H](Cc2ccc3ccccc3c2)NC(=O)[C@H](CCCNC(=N)N)NC1=O
IC50 [1]: > 10 nM

Compound: CC(=O)N[C@@H](CCCNC(=N)N)C(=O)N[C@@H](C)C(=O)N[C@H]1CSSC(C)(C)[C@H](C(=O)O)NC(=O)[C@H](Cc2c[nH]cn2)NC(=O)[C@H](Cc2ccc3ccccc3c2)NC(=O)[C@H](CCCNC(=N)N)NC1=O
Activity [9]: inactive
Activity [10]: Active
Activity [11]: Active
Activity [12]: inactive
inhibition (CCRF-CEM [13]): Active
Activity [14]: inactive

Compound: CC(=O)N[C@@H](CCCNC(=N)N)C(=O)N[C@@H](C)C(=O)N[C@@H]1CC(=O)NCCCC[C@@H](C(=O)O)NC(=O)[C@H](Cc2c[nH]cn2)NC(=O)[C@H](Cc2ccc3ccccc3c2)NC(=O)[C@H](CCCNC(=N)N)NC1=O
IC50 [1]: 2570 nM

The next lines start with results.

IC50 [1]: > 10 nM
Compound: CC(=O)N[C@@H](CCCNC(=N)N)C(=O)N[C@@H](C)C(=O)N[C@H]1CC(=O)NC[C@@H](C(=O)O)NC(=O)[C@H](Cc2c[nH]cn2)NC(=O)[C@H](Cc2ccc3ccccc3c2)NC(=O)[C@H](CCCNC(=N)N)NC1=O

IC50 [1]: 710 nM
Compound: CC(=O)N[C@@H](CCCNC(=N)N)C(=O)N[C@@H](C)C(=O)N[C@@H]1CC(=O)NCC[C@@H](C(=O)O)NC(=O)[C@H](Cc2c[nH]cn2)NC(=O)[C@H](Cc2ccc3ccccc3c2)NC(=O)[C@H](CCCNC(=N)N)NC1=O

IC50 [1]: 143 nM
Compound: CC(=O)N[C@@H](CCCNC(=N)N)C(=O)N[C@@H](C)C(=O)N[C@H]1CNC(=O)C[C@@H](C(=O)O)NC(=O)[C@H](Cc2c[nH]cn2)NC(=O)[C@H](Cc2ccc3ccccc3c2)NC(=O)[C@H](CCCNC(=N)N)NC1=O

IC50 [1]: > 10 nM
Compound: CC(=O)N[C@@H](CCCNC(=N)N)C(=O)N[C@@H](C)C(=O)N[C@H]1CC(=O)NCCC[C@@H](C(=O)O)NC(=O)[C@H](Cc2c[nH]cn2)NC(=O)[C@H](Cc2ccc3ccccc3c2)NC(=O)[C@H](CCCNC(=N)N)NC1=O

IC50 [1]: 89 nM
Compound: CC(=O)N[C@@H](CCCNC(=N)N)C(=O)N[C@@H](C)C(=O)N[C@@H]1CCC(=O)NC[C@@H](C(=O)O)NC(=O)[C@H](Cc2c[nH]cn2)NC(=O)[C@H](Cc2ccc3ccccc3c2)NC(=O)[C@H](CCCNC(=N)N)NC1=O

IC50 [1]: 810 nM
Compound: CC(=O)N[C@@H](CCCNC(=N)N)C(=O)N[C@@H](C)C(=O)N[C@@H]1CNC(=O)CC[C@@H](C(=O)O)NC(=O)[C@H](Cc2c[nH]cn2)NC(=O)[C@H](Cc2ccc3ccccc3c2)NC(=O)[C@H](CCCNC(=N)N)NC1=O

IC50 [1]: 2020 nM
Compound: CC(=O)N[C@@H](CCCNC(=N)N)C(=O)N[C@@H](C)C(=O)N[C@@H]1CC(=O)NCCC[C@@H](C(=O)O)NC(=O)[C@H](Cc2c[nH]cn2)NC(=O)[C@H](Cc2ccc3ccccc3c2)NC(=O)[C@H](CCCNC(=N)N)NC1=O

IC50 [1]: 756 nM
Compound: CC(=O)N[C@@H](CCCNC(=N)N)C(=O)N[C@@H](C)C(=O)N[C@H]1CC(=O)NCC[C@@H](C(=O)O)NC(=O)[C@H](Cc2c[nH]cn2)NC(=O)[C@H](Cc2ccc3ccccc3c2)NC(=O)[C@H](CCCNC(=N)N)NC1=O

IC50 [1]: 3600 nM
Compound: CC(=O)N[C@@H](CCCNC(=N)N)C(=O)N[C@@H](C)C(=O)N[C@@H]1CNC(=O)C[C@@H](C(=O)O)NC(=O)[C@H](Cc2c[nH]cn2)NC(=O)[C@H](Cc2ccc3ccccc3c2)NC(=O)[C@H](CCCNC(=N)N)NC1=O

IC50 [1]: 510 nM
Compound: CC(=O)N[C@@H](CCCNC(=N)N)C(=O)N[C@@H](C)C(=O)N[C@H]1CCC(=O)NC[C@@H](C(=O)O)NC(=O)[C@H](Cc2c[nH]cn2)NC(=O)[C@H](Cc2ccc3ccccc3c2)NC(=O)[C@H](CCCNC(=N)N)NC1=O

IC50 [1]: 3150 nM
Compound: CC(=O)N[C@@H](CCCNC(=N)N)C(=O)N[C@@H](C)C(=O)N[C@@H]1CC(=O)NC[C@@H](C(=O)O)NC(=O)[C@H](Cc2c[nH]cn2)NC(=O)[C@H](Cc2ccc3ccccc3c2)NC(=O)[C@H](CCCNC(=N)N)NC1=O

Activity [9]: inactive
Activity [10]: Active
Activity [11]: Active
remaining at 2 h, 10 µM [2]: 100%
IC50 [1]: 7.8 nM
Activity [12]: inactive
remaining at 4 h, 10 µM [3]: 100%
IC50 [4]: 3.9 nM
remaining at 0 h, 10 µM [5]: 100%
remaining at 1 h, 10 µM [6]: 100%
remaining at 8 h, 10 µM [7]: 100%
Activity [14]: inactive
Compound: CC(=O)N[C@@H](CCCNC(=N)N)C(=O)N[C@@H](C)C(=O)N[C@H]1CNC(=O)CC[C@@H](C(=O)O)NC(=O)[C@H](Cc2c[nH]cn2)NC(=O)[C@H](Cc2ccc3ccccc3c2)NC(=O)[C@H](CCCNC(=N)N)NC1=O
inhibition (CCRF-CEM [15]): Dose-Dependent Effect
inhibition (CCRF-CEM [16]): Active
